Experimental data from patent US8623869B2, “Compounds useful as inhibitors of ATR kinase” (Vertex Pharmaceuticals Incorporated, priority 2010, dated 2014).

Biological target: T1, full-length ATR (Homo sapiens, UniProt Q13535)
T1 construct: Assays were carried out at 25° C. in the presence of 5 nM full-length ATR
Assay: ATR Inhibition Assay (radioactive-phosphate incorporation)
Format: biochemical
Conditions: Ki(app); 5 nM full-length ATR, 10 μM ATP, 800 μM target peptide, 25° C.
Protocol: Compounds were screened for their ability to inhibit ATR kinase using a radioactive-phosphate incorporation assay. Assays were carried out in a mixture of 50 mM Tris/HCl (pH 7.5), 10 mM MgCl2 and 1 mM DTT. Final substrate concentrations were 10 μM [γ-33P]ATP (3mCi 33P ATP/mmol ATP, Perkin Elmer) and 800 μM target peptide (ASELPASQPQPFSAKKK).
Assays were carried out at 25° C. in the presence of 5 nM full-length ATR. An assay stock buffer solution was prepared containing all of the reagents listed above, with the exception of ATP and the test compound of interest. 13.5 μL of the stock solution was placed in a 96 well plate followed by addition of 2 μL of DMSO stock containing serial dilutions of the test compound (typically starting from a final concentration of 15 μM with 3-fold serial dilutions) in duplicate (final DMSO concentration 7%). The plate was pre-incubated for 10 minutes at 25° C. and the reaction initiated by addition of 15 μL [γ-33P]ATP (final concentration 10 μM).
The reaction was stopped after […] by the addition of 30 μL 0.1M phosphoric acid containing 2 mM ATP. A multiscreen phosphocellulose filter 96-well plate (Millipore, Cat no. MAPHN0B50) was pretreated with 100 μL 0.2M phosphoric acid prior to the addition of 45 μL of the stopped assay mixture. The plate was washed with 5×200 μL 0.2M phosphoric acid. After drying, 100 μL Optiphase ‘SuperMix’ liquid scintillation cocktail (Perkin Elmer) was added to the well prior to scintillation counting (1450 Microbeta Liquid Scintillation Counter, Wallac).
After removing mean background values for all of the data points, Ki(app) data were calculated from non-linear regression analysis of the initial rate data using the Prism software package (GraphPad Prism version 3.0cx for Macintosh, GraphPad Software, San Diego Calif., USA).

T1 sequence (Q13535 whole entry): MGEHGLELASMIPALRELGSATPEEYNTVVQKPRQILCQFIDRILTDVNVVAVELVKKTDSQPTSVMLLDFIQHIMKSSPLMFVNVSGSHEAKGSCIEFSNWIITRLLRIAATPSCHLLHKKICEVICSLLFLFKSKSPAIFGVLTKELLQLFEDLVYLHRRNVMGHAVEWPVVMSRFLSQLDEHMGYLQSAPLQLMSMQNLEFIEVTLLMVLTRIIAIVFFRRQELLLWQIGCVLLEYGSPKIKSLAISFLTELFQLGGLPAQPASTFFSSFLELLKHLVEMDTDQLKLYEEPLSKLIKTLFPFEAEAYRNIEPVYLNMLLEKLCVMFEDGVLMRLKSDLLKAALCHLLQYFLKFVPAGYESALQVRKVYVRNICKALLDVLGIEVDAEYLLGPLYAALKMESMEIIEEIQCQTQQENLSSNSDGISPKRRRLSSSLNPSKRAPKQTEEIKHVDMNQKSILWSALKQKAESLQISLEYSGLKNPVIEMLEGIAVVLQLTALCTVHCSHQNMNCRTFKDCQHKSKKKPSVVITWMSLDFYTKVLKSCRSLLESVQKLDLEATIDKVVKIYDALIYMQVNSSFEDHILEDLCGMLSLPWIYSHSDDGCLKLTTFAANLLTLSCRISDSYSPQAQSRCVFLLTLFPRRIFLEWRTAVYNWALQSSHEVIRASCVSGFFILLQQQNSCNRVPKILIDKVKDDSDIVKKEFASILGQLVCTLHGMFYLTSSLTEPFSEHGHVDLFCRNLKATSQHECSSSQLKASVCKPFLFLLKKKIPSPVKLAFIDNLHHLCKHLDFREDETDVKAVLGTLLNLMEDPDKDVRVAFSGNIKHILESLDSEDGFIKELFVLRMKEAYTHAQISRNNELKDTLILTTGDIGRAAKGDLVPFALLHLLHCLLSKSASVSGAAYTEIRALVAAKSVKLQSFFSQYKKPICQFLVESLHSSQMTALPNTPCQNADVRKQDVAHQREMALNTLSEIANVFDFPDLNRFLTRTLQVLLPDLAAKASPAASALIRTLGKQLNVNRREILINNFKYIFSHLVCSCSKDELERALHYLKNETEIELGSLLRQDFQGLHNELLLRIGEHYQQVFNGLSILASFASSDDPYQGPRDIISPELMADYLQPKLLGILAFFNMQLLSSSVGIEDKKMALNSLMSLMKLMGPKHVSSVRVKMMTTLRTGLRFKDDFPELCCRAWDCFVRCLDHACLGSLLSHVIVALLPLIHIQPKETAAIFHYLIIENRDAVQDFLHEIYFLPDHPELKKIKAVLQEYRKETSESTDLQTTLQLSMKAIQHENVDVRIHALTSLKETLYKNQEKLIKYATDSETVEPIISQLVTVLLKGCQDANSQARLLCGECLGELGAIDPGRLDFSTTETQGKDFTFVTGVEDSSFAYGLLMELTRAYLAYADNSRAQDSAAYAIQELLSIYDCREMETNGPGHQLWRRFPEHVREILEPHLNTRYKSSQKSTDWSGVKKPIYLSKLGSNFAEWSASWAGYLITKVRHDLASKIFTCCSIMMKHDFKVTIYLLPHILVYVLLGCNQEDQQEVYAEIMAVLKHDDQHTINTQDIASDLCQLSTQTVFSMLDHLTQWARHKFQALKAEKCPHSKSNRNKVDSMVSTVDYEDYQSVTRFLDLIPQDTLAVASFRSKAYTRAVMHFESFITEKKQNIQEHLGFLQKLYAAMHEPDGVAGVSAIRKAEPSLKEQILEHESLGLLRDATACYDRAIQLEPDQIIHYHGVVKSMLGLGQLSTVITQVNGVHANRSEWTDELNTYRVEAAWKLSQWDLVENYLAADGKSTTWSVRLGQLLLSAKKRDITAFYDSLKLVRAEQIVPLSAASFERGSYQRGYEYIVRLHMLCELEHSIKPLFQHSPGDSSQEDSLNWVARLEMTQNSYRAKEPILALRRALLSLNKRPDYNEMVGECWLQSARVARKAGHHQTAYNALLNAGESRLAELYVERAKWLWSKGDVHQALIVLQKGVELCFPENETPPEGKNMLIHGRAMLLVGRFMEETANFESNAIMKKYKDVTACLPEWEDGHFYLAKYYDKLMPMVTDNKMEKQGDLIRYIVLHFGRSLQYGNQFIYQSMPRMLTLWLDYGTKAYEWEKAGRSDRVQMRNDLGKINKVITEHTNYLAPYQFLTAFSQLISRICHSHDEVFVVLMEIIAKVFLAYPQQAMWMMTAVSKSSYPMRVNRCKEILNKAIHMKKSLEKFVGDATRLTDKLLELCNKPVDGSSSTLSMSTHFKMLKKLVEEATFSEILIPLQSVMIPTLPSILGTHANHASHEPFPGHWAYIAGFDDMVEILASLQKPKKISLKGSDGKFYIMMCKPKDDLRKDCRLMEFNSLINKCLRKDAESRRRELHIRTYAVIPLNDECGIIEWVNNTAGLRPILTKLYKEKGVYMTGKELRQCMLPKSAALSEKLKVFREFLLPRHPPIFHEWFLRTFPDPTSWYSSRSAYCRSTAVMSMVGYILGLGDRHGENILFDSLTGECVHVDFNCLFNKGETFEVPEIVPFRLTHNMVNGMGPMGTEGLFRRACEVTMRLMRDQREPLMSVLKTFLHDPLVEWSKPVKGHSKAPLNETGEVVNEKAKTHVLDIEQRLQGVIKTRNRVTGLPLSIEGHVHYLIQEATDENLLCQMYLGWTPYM

Compound	Ki [nM]
CC(N)c1cccc(-c2cc(-c3c[nH]c4ncc(-c5ccc(S(=O)(=O)C(C)C)cc5)nc34)on2)c1 (stereo not shown) [Compound I-4, 1-[3-[5-[2-(4-isopropylsulfonylphenyl)-5H-pyrrolo[2,3-b]pyrazin-7-yl]isoxazol-3-yl]phenyl]ethanamine]	≤ 10
Cc1ccc(-c2c[nH]c3ncc(-c4ccc(S(=O)(=O)C(C)C)cc4)nc23)s1 [Compound I-26, 2-(4-isopropylsulfonylphenyl)-7-(5-methyl-2-thienyl)-5H-pyrrolo[2,3-b]pyrazine]	10 to 50
Cc1n[nH]c(C)c1-c1c[nH]c2ncc(-c3ccc(S(=O)(=O)C(C)C)cc3)nc12 [Compound I-52, 7-(3,5-dimethyl-1H-pyrazol-4-yl)-2-(4-isopropylsulfonylphenyl)-5H-pyrrolo[2,3-b]pyrazine]	> 50
CC(C)S(=O)(=O)c1ccc(-c2cnc3[nH]cc(-c4scc5c4OCCO5)c3n2)cc1 [Compound I-20, 7-(2,3-dihydrothieno[3,4-b][1,4]dioxin-5-yl)-2-(4-isopropylsulfonylphenyl)-5H-pyrrolo[2,3-b]pyrazine]	10 to 50
CC(C)S(=O)(=O)c1ccc(-c2cnc3[nH]cc(-c4csc(C(=O)O)c4)c3n2)cc1 [Compound I-64, 4-[2-(4-isopropylsulfonylphenyl)-5H-pyrrolo[2,3-b]pyrazin-7-yl]thiophene-2-carboxylic acid]	≤ 10
CC(C)S(=O)(=O)c1ccc(-c2cnc3[nH]cc(-c4cccnc4)c3n2)cc1 [Compound I-1, 2-(4-Isopropylsulfonylphenyl)-7-(3-pyridyl)-5H-pyrrolo[2,3-b]pyrazine]	10 to 50
CC(C)S(=O)(=O)c1ccc(-c2cnc3[nH]cc(-c4cnn(C)c4)c3n2)cc1 [Compound I-50, 2-(4-isopropylsulfonylphenyl)-7-(1-methylpyrazol-4-yl)-5H-pyrrolo[2,3-b]pyrazine]	> 50
Cc1cscc1-c1c[nH]c2ncc(-c3ccc(S(=O)(=O)C(C)C)cc3)nc12 [Compound I-27, 2-(4-isopropylsulfonylphenyl)-7-(4-methyl-3-thienyl)-5H-pyrrolo[2,3-b]pyrazine]	> 50
COc1ccccc1-c1c[nH]c2ncc(-c3ccc(S(=O)(=O)C(C)C)cc3)nc12 [Compound I-15, 2-(4-isopropylsulfonylphenyl)-7-(2-methoxyphenyl)-5H-pyrrolo[2,3-b]pyrazine]	> 50
CC(C)S(=O)(=O)c1ccc(-c2cnc3[nH]cc(-c4cnc5[nH]ccc5c4)c3n2)cc1 [Compound I-6, 2-(4-isopropylsulfonylphenyl)-7-(1H-pyrrolo[2,3-b]pyridin-5-yl)-5H-pyrrolo[2,3-b]pyrazine]	≤ 10
CC(C)S(=O)(=O)c1ccc(-c2cnc3[nH]cc(-c4ccc(F)nc4)c3n2)cc1 [Compound I-23, 7-(6-fluoro-3-pyridyl)-2-(4-isopropylsulfonylphenyl)-5H-pyrrolo[2,3-b]pyrazine]	10 to 50
CC(C)S(=O)(=O)c1ccc(-c2cnc3[nH]cc(-c4ccccc4C(N)=O)c3n2)cc1 [Compound I-18, 2-[2-(4-isopropylsulfonylphenyl)-5H-pyrrolo[2,3-b]pyrazin-7-yl]benzamide]	> 50
CC(C)S(=O)(=O)c1ccc(-c2cnc3[nH]cc(-c4cccc(-c5nnn[nH]5)c4)c3n2)cc1 [Compound I-68, 2-(4-isopropylsulfonylphenyl)-7-[3-(1H-tetrazol-5-yl)phenyl]-5H-pyrrolo[2,3-b]pyrazine]	10 to 50
CC(C)S(=O)(=O)c1ccc(-c2cnc3[nH]cc(-c4cc5ccccc5o4)c3n2)cc1 [Compound I-36, 7-(benzofuran-2-yl)-2-(4-isopropylsulfonylphenyl)-5H-pyrrolo[2,3-b]pyrazine]	10 to 50
CC(Oc1cc(-c2c[nH]c3ncc(-c4ccc(S(=O)(=O)C(C)C)cc4)nc23)sc1C(=O)O)c1ccccc1Cl (stereo not shown) [Compound I-69, 3-[1-(2-chlorophenyl)ethoxy]-5-[2-(4-isopropylsulfonylphenyl)-5H-pyrrolo[2,3-b]pyrazin-7-yl]thiophene-2-carboxylic acid]	≤ 10
CCn1cc(-c2c[nH]c3ncc(-c4ccc(S(=O)(=O)C(C)C)cc4)nc23)cn1 [Compound I-7, 7-(1-ethylpyrazol-4-yl)-2-(4-isopropylsulfonylphenyl)-5H-pyrrolo[2,3-b]pyrazine]	> 50
COc1ncc(-c2c[nH]c3ncc(-c4ccc(S(=O)(=O)C(C)C)cc4)nc23)c(OC)n1 [Compound I-46, 7-(2,4-dimethoxypyrimidin-5-yl)-2-(4-isopropylsulfonylphenyl)-5H-pyrrolo[2,3-b]pyrazine]	> 50
CC(C)S(=O)(=O)c1ccc(-c2cnc3[nH]cc(-c4cc5cc(F)ccc5n4C(=O)OC(C)(C)C)c3n2)cc1 [Compound I-56, tert-butyl 5-fluoro-2-[2-(4-isopropylsulfonylphenyl)-5H-pyrrolo[2,3-b]pyrazin-7-yl]indole-1-carboxylate]	> 50
CC(C)S(=O)(=O)c1ccc(-c2cnc3[nH]cc(-c4cc5ccccc5s4)c3n2)cc1 [Compound I-45, 7-(benzothiophen-2-yl)-2-(4-isopropylsulfonylphenyl)-5H-pyrrolo[2,3-b]pyrazine]	10 to 50
